# Data as given in ChEMBL document CHEMBL1201862, “PubChem BioAssay data set” (2004).
# The source made the active and inactive calls.
# Assays:
# Cytochrome P450 2C9 = Cytochrome P450 2C9 (Homo sapiens, UniProt P11712)
# Cytochrome P450 2C19 = Cytochrome P450 2C19 (Homo sapiens, UniProt P33261); experiment: Cytochrome panel assay with activity outcomes. Panel member name: p450-cyp2c19 Compounds with AC50 equal or less than 10 uM are considered active; format: functional
# [1] = molecular target: DNA dC->dU-editing enzyme APOBEC-3A (Homo sapiens, UniProt P31941); experiment: Dose Response confirmation of small molecule APOBEC3A DNA Deaminase Inhibitors via a fluorescence-based single-stranded DNA deaminase assay. [Related pubchem assays (depositor defined):AID493011, AID493024]; format: functional
# DNA dC->dU-editing enzyme APOBEC-3A, sequence (P31941 whole entry): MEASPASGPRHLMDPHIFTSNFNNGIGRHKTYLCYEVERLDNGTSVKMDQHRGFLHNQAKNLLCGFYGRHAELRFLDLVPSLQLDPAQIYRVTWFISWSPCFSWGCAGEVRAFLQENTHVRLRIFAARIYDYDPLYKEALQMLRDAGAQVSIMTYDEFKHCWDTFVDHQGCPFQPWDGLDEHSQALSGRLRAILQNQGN
# [2] = molecular target: T1, DNA dC->dU-editing enzyme APOBEC-3G (Homo sapiens, UniProt Q9HC16); format: functional
# T1 sequence (Q9HC16 whole entry, the tested form may be a part): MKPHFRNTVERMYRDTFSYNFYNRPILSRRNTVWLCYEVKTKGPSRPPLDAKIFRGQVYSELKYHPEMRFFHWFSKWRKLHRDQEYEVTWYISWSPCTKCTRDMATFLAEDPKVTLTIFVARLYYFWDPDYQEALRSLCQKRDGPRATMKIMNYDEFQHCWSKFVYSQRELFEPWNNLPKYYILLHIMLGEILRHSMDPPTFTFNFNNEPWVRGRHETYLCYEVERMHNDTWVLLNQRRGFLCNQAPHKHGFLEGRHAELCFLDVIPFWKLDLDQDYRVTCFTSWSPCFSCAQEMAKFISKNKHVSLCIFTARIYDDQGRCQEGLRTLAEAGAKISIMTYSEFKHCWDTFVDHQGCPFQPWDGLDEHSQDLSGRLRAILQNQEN
# [3] = molecular target: T2, Carboxy-terminal domain RNA polymerase II polypeptide A small phosphatase 1 (Homo sapiens, UniProt Q9GZU7); experiment: inhibitors of CTDSP1, concentration-response testing, biochemical assay, absorbance-based, actives from ultra-high-throughput screening (AID 540297); format: functional
# T2 sequence (Q9GZU7 whole entry): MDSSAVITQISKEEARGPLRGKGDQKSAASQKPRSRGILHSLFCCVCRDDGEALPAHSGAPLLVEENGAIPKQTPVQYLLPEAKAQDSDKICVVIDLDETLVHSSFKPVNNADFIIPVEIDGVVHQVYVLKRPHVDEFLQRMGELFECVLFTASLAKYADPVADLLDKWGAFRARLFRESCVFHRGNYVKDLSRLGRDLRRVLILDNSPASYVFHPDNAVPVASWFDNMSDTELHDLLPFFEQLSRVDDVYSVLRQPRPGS
# [4] = molecular target: T1, DNA dC->dU-editing enzyme APOBEC-3G; experiment: Dose Response confirmation of small molecule APOBEC3G DNA Deaminase Inhibitors via a fluorescence-based single-stranded DNA deaminase assay. [Related pubchem assays (depositor defined):AID493012, AID493028]; format: functional
# Prothrombin = Prothrombin (Homo sapiens, UniProt P00734); experiment: Thrombin 1536 HTS Dose Response Confirmation. [Related pubchem assays: 1046 (Thrombin 1536 HTS; hits were confirmed in this assay)]; format: functional
# [5] = control 3'UTR Renilla luciferase suppression, dose response, counter-screen for Shn3 inhibitor project, cell-based, Clone20-Shn3RL, cherry-picked (AID 624133); format: functional
# [6] = Shn3 3'UTR reporter inhibitors, dose response, cell-based, Clone20 osteoblasts, firefly luciferase, cherry-picked (AID 624132); format: functional;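 note: firefly luciferase luminescence from reporter carrying the Shn3 3'UTR in osteoblasts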
# HEK293 = experiment: inhibitors of LMP1-driven NF-kB reporter, dose response, cell-based, HEK293, luciferase, cherry-pick (AID 588343); format: functional; conditions: Homo sapiens
# [7] = HepG2 cell cytotoxicity, dose response, cytotoxicity control for Shn3 inhibitor project, CellTiter-Glo, cherry-picked (AID 624134); format: functional, cell-based
# [8] = A cytotoxicity screen of small molecule inhibitors of the PhoP region in Salmonella typhi identified in the primary screen. [Related pubchem assays: 1850, 1864, 1985 ]; format: functional
# [9] = molecular target: Induced myeloid leukemia cell differentiation protein Mcl-1 (Homo sapiens, UniProt Q07820); format: functional
# Induced myeloid leukemia cell differentiation protein Mcl-1, sequence (Q07820 whole entry): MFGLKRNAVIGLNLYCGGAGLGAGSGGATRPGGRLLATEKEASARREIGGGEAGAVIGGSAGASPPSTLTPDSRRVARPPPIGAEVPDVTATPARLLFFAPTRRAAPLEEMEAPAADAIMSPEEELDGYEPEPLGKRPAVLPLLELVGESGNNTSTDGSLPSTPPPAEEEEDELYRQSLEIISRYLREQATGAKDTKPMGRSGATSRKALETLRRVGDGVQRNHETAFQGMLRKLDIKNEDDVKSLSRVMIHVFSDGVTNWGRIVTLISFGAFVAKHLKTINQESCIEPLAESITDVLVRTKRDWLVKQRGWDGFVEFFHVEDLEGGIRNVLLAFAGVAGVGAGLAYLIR
# [10] = molecular target: Glyceraldehyde-3-phosphate dehydrogenase (Homo sapiens, UniProt P04406)
# Glyceraldehyde-3-phosphate dehydrogenase, sequence (P04406 whole entry): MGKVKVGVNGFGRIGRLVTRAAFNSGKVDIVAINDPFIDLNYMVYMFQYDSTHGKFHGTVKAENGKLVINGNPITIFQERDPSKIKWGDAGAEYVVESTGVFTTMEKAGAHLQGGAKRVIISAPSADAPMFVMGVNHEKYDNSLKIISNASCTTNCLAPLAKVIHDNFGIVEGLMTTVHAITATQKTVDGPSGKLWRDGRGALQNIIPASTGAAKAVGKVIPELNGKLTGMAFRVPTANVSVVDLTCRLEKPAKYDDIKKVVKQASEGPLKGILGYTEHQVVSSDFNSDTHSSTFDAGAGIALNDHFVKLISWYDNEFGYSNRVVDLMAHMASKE
# Cytochrome P450 1A2 = molecular target: T3, Cytochrome P450 1A2 (Homo sapiens, UniProt P05177);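 note: PubChem cytochrome P450 panel assay, CYP1A2 panel member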
# T3 sequence (P05177 whole entry): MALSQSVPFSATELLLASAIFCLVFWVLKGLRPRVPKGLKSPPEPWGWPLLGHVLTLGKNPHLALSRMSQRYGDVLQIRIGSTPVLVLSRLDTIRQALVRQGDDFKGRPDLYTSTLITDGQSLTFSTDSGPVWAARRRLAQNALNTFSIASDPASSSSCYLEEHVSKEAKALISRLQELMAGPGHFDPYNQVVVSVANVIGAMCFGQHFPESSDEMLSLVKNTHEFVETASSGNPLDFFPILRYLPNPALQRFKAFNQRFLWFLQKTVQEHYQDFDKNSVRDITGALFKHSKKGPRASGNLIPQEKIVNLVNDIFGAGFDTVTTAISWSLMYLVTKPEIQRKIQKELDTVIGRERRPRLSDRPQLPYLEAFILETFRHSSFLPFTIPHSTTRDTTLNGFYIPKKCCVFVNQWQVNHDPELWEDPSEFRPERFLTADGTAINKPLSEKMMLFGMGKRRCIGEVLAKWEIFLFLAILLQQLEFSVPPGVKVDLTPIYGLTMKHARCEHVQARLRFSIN
# Caspase-6 = molecular target: T4, Caspase-6 (Homo sapiens, UniProt P55212); experiment: human caspase-6 inhibitors, dose response, biochemical, VEID-R110 fluorescence, cherry-pick (AID 720632)
# T4 sequence (P55212 whole entry): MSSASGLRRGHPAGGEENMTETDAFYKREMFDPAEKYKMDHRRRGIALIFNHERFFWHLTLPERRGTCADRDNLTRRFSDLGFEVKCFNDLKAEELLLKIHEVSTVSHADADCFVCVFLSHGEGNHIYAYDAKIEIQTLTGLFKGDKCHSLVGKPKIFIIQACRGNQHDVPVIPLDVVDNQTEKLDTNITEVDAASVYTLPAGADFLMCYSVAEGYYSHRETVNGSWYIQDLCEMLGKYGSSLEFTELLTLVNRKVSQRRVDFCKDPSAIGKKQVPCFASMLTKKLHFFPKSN
# Cytochrome P450 2C9, sequence (P11712 whole entry): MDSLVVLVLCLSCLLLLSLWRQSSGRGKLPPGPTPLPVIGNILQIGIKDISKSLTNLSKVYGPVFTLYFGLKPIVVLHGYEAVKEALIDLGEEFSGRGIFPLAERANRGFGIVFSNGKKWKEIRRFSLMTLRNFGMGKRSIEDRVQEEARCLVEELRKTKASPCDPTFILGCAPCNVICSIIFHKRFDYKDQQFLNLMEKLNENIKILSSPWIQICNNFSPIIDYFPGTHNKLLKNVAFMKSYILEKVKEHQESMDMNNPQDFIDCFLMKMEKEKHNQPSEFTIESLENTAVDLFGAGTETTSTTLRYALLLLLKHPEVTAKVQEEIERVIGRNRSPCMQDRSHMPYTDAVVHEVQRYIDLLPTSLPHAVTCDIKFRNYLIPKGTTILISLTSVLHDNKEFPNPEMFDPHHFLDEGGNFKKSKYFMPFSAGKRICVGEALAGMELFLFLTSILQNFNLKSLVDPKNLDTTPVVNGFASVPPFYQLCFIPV
# Cytochrome P450 2C19, sequence (P33261 whole entry): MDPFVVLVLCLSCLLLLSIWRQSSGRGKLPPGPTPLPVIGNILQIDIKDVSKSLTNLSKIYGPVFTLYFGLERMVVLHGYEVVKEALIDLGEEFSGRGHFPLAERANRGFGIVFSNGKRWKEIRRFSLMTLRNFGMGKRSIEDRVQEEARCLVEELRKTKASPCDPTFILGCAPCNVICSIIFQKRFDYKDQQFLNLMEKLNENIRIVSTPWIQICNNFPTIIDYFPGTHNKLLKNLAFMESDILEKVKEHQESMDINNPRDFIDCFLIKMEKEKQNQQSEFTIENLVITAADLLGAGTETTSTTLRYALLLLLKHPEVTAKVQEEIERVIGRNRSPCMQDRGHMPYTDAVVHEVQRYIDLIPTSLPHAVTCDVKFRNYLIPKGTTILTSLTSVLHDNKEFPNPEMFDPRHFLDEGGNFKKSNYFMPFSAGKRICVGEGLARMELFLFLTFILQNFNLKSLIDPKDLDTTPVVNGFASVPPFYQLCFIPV
smiles,measurement,setting,value
Cn1cnc(CCN)c1 [N-METHYLHISTAMINE],AC50,Cytochrome P450 2C9,inconclusive
same,AC50,Cytochrome P450 2C19,inconclusive
Cn1cnc(C(=O)N2CCN(c3ccccc3)CC2)c1C(=O)N1CCN(c2ccccc2)CC1,IC50,[1],2.75 µM (active)
same,IC50,[2],6.53 µM (active)
same,IC50,[3],7.05 µM (active)
COc1ccc(NC(=S)c2ccc3ccccc3n2)cc1,IC50,[4],66.5 µM (active)
Cc1cc2ncn(C(=O)c3ccc4c(c3)OCO4)c2cc1C,IC50,Prothrombin,5.76 µM (active)
CN(C)c1ccc(C=Cc2ccnc3c(O)cccc23)cc1,AC50,[5],2.57 µM (active)
same,AC50,[6],1.43 µM (active)
same,AC50,HEK293,10 µM (active)
same,AC50,[7],52.7 µM (active)
Cc1ccc(-n2c(C)c([N+](=O)[O-])c3ccc(O)c(CN(C)C)c32)cc1,AC50,HEK293,8.54 µM (active)
CC1=C(C(=O)Nc2ccccc2)C(c2ccc(O)cc2)N2C(=O)CSC2=N1 (stereo unspecified),IC50,Prothrombin,25.2 µM (active)
Cc1ccc(NC(=O)c2sccc2C)cc1[N+](=O)[O-],EC50,[8],> 50 µM (active)
COc1cc(C2C3=C(O)c4ccccc4C3=Nc3nc(N)nc(O)c32)ccc1O (stereo unspecified),IC50,[9],2.76 µM (active)
COC(=O)C1=C(C)N(Cc2ccccc2)C(NCCCCO)=N[C@H]1c1cccc(C(F)(F)F)c1,IC50,[1],4.94 µM (active)
same,IC50,[2],7.1 µM (active)
O=C1C(Cl)=C(N2CCN(Cc3ccc4c(c3)OCO4)CC2)C(=O)N1c1ccc(C(F)(F)F)cc1,IC50,[10],> 50 µM (inconclusive)
CCN1CCN(CC(=O)c2cc(OC)c(OC)c(OC)c2)CC1,IC50,Prothrombin,> 50 µM (not active)
CCN1C[C@]2(COC(=O)c3ccccc3N3C(=O)C[C@H](C)C3=O)CC[C@H](OC)[C@]34[C@@H]5C[C@@H]6[C@H](OC)[C@H]5[C@](O)(C[C@@H]6OC)C(O)([C@@H]13)[C@@H](OC)[C@@H]24,AC50,Cytochrome P450 2C9,inconclusive
same,AC50,Cytochrome P450 1A2,39.8 µM (inconclusive)
CN(Cc1ccccc1)CC(O)COc1ccc(CNCCCOc2cccnc2)cc1 (stereo unspecified),EC50,[8],> 50 µM (active)
O=[N+]([O-])c1ccc(N2CCNCC2)cc1NCc1cccnc1,EC50,[8],> 50 µM (active)
O=C(O)/C(=C\c1cccc([N+](=O)[O-])c1)c1ccc(S(=O)(=O)N2CCCCC2)s1,AC50,Caspase-6,13.9 µM (active)
same,IC50,[3],9.53 µM (active)
Cc1ccc(S(=O)(=O)N2CCN(C(=O)C3COc4ccccc4O3)CC2)cc1C (stereo unspecified),AC50,Cytochrome P450 2C9,inconclusive
